# Experimental data taken from patent US20210382058A1, “PATIENT SELECTION FOR TREATMENT OF MYC POSITIVE CANCERS WITH INDENOISOQUINOLINES” (Purdue Research Foundation, priority 2020, published 2021).
# Read-outs that look alike come from different tables or passages of the source.
# Experiments:
# [1] = test system: MYC protein expression in MCF-7 breast cancer cells; assay: Western blotting of MYC protein level in MCF-7 cells; format: cell-based, human; details: Homo sapiens, MCF7; western blotting, MCF-7 cells, 0.5, 1, 2, and 4 μM, 24 hours; read-out: MYC Inhibition
# In short: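 MCF-7 cells were exposed to compounds at 0.5, 1, 2 and 4 μM for 24 hours at 37° C. MYC was detected by immunoblot with ECL, using rabbit anti-MYC (1:1000) and anti-GAPDH (1:2000) as loading control.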
# NCI-60 cancer cell lines = assay: NCI-60 cancer cell line drug screen (GI50, MGM); format: cell-based, human; details: Homo sapiens
# Procedure: Cancer cells were incubated with the test compounds at five concentrations ranging from 100 μM to 10 nM for 48 h. […] The approximate average of GI50 values across the entire panel of NCI-60 cancer cell lines for each compound was recorded as the MGM value.
compound,measurement,setting,value
COc1cc2c3c(n(CCCn4ccnc4)c(=O)c2cc1OC)-c1cc2c(cc1C3=O)OCO2 [Compound 42],minimal effective concentration,[1],0.5 to 1 µM
same,GI50,"NCI-60 cancer cell lines; 786-0, Renal Cancer, 786-0, read-out: Antiproliferative Activities [GI50 (μM)]",< 0.01 µM
same,GI50,"NCI-60 cancer cell lines; A498, Renal Cancer, A498, read-out: Antiproliferative Activities [GI50 (μM)]",7.17 µM
same,GI50,"NCI-60 cancer cell lines; A549, Non-Small Cell Lung Cancer, A549/ATCC, read-out: Antiproliferative Activities [GI50 (μM)]",10.5 µM
same,GI50,"NCI-60 cancer cell lines; ACHN, Renal Cancer, ACHN, read-out: Antiproliferative Activities [GI50 (μM)]",< 0.01 µM
same,GI50,"NCI-60 cancer cell lines; CAKI-1, Renal Cancer, CAKI-1, read-out: Antiproliferative Activities [GI50 (μM)]",0.32 µM
same,GI50,"NCI-60 cancer cell lines; CCRF-CEM, Leukemia, CCRF-CEM, read-out: Antiproliferative Activities [GI50 (μM)]",< 0.01 µM
same,GI50,"NCI-60 cancer cell lines; COLO 205, Colon Cancer, COLO 205, read-out: Antiproliferative Activities [GI50 (μM)]",> 100 µM
same,GI50,"NCI-60 cancer cell lines; DU-145, Prostate Cancer, DU-145, read-out: Antiproliferative Activities [GI50 (μM)]",< 0.01 µM
same,GI50,"NCI-60 cancer cell lines; EKVX, Non-Small Cell Lung Cancer, EKVX, read-out: Antiproliferative Activities [GI50 (μM)]",70.7 µM
same,GI50,"NCI-60 cancer cell lines; HCC 2998, Colon Cancer, HCC-2998, read-out: Antiproliferative Activities [GI50 (μM)]",29.3 µM
same,GI50,"NCI-60 cancer cell lines; HCT-15, Colon Cancer, HCT-15, read-out: Antiproliferative Activities [GI50 (μM)]",> 100 µM
same,GI50,"NCI-60 cancer cell lines; HCT-116, Colon Cancer, HCT-116, read-out: Antiproliferative Activities [GI50 (μM)]",0.17 µM
same,GI50,"NCI-60 cancer cell lines; HL-60, read-out: Antiproliferative Activities [GI50 (μM)]",0.02 µM
same,GI50,"NCI-60 cancer cell lines; HOP-62, Non-Small Cell Lung Cancer, HOP-62, read-out: Antiproliferative Activities [GI50 (μM)]",< 0.01 µM
same,GI50,"NCI-60 cancer cell lines; HOP-92, Non-Small Cell Lung Cancer, HOP-92, read-out: Antiproliferative Activities [GI50 (μM)]",0.19 µM
same,GI50,"NCI-60 cancer cell lines; HT-29, Colon Cancer, HT29, read-out: Antiproliferative Activities [GI50 (μM)]",> 100 µM
same,GI50,"NCI-60 cancer cell lines; Hs-578T, Breast Cancer, HS 578T, read-out: Antiproliferative Activities [GI50 (μM)]",54.2 µM
same,GI50,"NCI-60 cancer cell lines; IGROV-1, Ovarian Cancer, IGROV1, read-out: Antiproliferative Activities [GI50 (μM)]",6.72 µM
same,GI50,"NCI-60 cancer cell lines; K562, Leukemia, K-562, read-out: Antiproliferative Activities [GI50 (μM)]",1.49 µM
same,GI50,"NCI-60 cancer cell lines; KM12, Colon Cancer, KM12, read-out: Antiproliferative Activities [GI50 (μM)]",> 100 µM
same,GI50,"NCI-60 cancer cell lines; LOX IMVI, Melanoma, LOX IMVI, read-out: Antiproliferative Activities [GI50 (μM)]",0.06 µM
same,GI50,"NCI-60 cancer cell lines; Leukemia, SR, read-out: Antiproliferative Activities [GI50 (μM)]",< 0.01 µM
same,GI50,"NCI-60 cancer cell lines; MCF7, Breast Cancer, MCF7, read-out: Antiproliferative Activities [GI50 (μM)]",< 0.01 µM
same,GI50,"NCI-60 cancer cell lines; MDA-MB-231, Breast Cancer, MDA-MB-231/ATCC, read-out: Antiproliferative Activities [GI50 (μM)]",77.8 µM
same,GI50,"NCI-60 cancer cell lines; MDA-MB-435, Melanoma, MDA-MB-435, read-out: Antiproliferative Activities [GI50 (μM)]",> 100 µM
same,GI50,"NCI-60 cancer cell lines; MOLT-4, Leukemia, MOLT-4, read-out: Antiproliferative Activities [GI50 (μM)]",< 0.01 µM
same,GI50,"NCI-60 cancer cell lines; Malme-3M, Melanoma, MALME-3M, read-out: Antiproliferative Activities [GI50 (μM)]",1.6 µM
same,GI50,"NCI-60 cancer cell lines; Melanoma, M14, read-out: Antiproliferative Activities [GI50 (μM)]",< 0.01 µM
same,GI50,"NCI-60 cancer cell lines; NCI-H23, Non-Small Cell Lung Cancer, NCI-H23, read-out: Antiproliferative Activities [GI50 (μM)]",0.09 µM
same,GI50,"NCI-60 cancer cell lines; NCI-H226, Non-Small Cell Lung Cancer, NCI-H226, read-out: Antiproliferative Activities [GI50 (μM)]",0.37 µM
same,GI50,"NCI-60 cancer cell lines; NCI-H322M, Non-Small Cell Lung Cancer, NCI-H322M, read-out: Antiproliferative Activities [GI50 (μM)]",> 100 µM
same,GI50,"NCI-60 cancer cell lines; NCI-H460, Non-Small Cell Lung Cancer, NCI-H460, read-out: Antiproliferative Activities [GI50 (μM)]",< 0.01 µM
same,GI50,"NCI-60 cancer cell lines; NCI-H522, Non-Small Cell Lung Cancer, NCI-H522, read-out: Antiproliferative Activities [GI50 (μM)]",< 0.01 µM
same,GI50,"NCI-60 cancer cell lines; OVCAR-3, Ovarian Cancer, OVCAR-3, read-out: Antiproliferative Activities [GI50 (μM)]",16.4 µM
same,GI50,"NCI-60 cancer cell lines; OVCAR-4, Ovarian Cancer, OVCAR-4, read-out: Antiproliferative Activities [GI50 (μM)]",> 100 µM
same,GI50,"NCI-60 cancer cell lines; OVCAR-5, Ovarian Cancer, OVCAR-5, read-out: Antiproliferative Activities [GI50 (μM)]",> 100 µM
same,GI50,"NCI-60 cancer cell lines; OVCAR-8, Ovarian Cancer, OVCAR-8, read-out: Antiproliferative Activities [GI50 (μM)]",1.03 µM
same,GI50,"NCI-60 cancer cell lines; Ovarian Cancer, NCl/ADR-RES, read-out: Antiproliferative Activities [GI50 (μM)]",0.35 µM
same,GI50,"NCI-60 cancer cell lines; Prostate Cancer, PC-3, read-out: Antiproliferative Activities [GI50 (μM)]",34.9 µM
same,GI50,"NCI-60 cancer cell lines; RPMI-8226, Leukemia, RPMI-8226, read-out: Antiproliferative Activities [GI50 (μM)]",< 0.01 µM
same,GI50,"NCI-60 cancer cell lines; RXF 393, Renal Cancer, RXF 393, read-out: Antiproliferative Activities [GI50 (μM)]",8 µM
same,GI50,"NCI-60 cancer cell lines; Renal Cancer, U0-31, read-out: Antiproliferative Activities [GI50 (μM)]",0.03 µM
same,GI50,"NCI-60 cancer cell lines; SF-295, CNS Cancer, SF-295, read-out: Antiproliferative Activities [GI50 (μM)]",< 0.01 µM
same,GI50,"NCI-60 cancer cell lines; SF-539, CNS Cancer, SF-539, read-out: Antiproliferative Activities [GI50 (μM)]",< 0.01 µM
same,GI50,"NCI-60 cancer cell lines; SK-MEL-2, Melanoma, SK-MEL-2, read-out: Antiproliferative Activities [GI50 (μM)]",> 100 µM
same,GI50,"NCI-60 cancer cell lines; SK-MEL-5, Melanoma, SK-MEL-5, read-out: Antiproliferative Activities [GI50 (μM)]",0.22 µM
same,GI50,"NCI-60 cancer cell lines; SK-MEL-28, Melanoma, SK-MEL-28, read-out: Antiproliferative Activities [GI50 (μM)]",> 100 µM
same,GI50,"NCI-60 cancer cell lines; SK-OV-3, Ovarian Cancer, SK-OV-3, read-out: Antiproliferative Activities [GI50 (μM)]",< 0.01 µM
same,GI50,"NCI-60 cancer cell lines; SN12C, Renal Cancer, SN12C, read-out: Antiproliferative Activities [GI50 (μM)]",< 0.01 µM
same,GI50,"NCI-60 cancer cell lines; SNB-19, CNS Cancer, SNB-19, read-out: Antiproliferative Activities [GI50 (μM)]",< 0.01 µM
same,GI50,"NCI-60 cancer cell lines; SNB-75, CNS Cancer, SNB-75, read-out: Antiproliferative Activities [GI50 (μM)]",0.23 µM
same,GI50,"NCI-60 cancer cell lines; SW-620, Colon Cancer, SW-620, read-out: Antiproliferative Activities [GI50 (μM)]",0.06 µM
same,GI50,"NCI-60 cancer cell lines; T47D, Breast Cancer, T-47D, read-out: Antiproliferative Activities [GI50 (μM)]",< 0.01 µM
same,GI50,"NCI-60 cancer cell lines; TK-10, Renal Cancer, TK-10, read-out: Antiproliferative Activities [GI50 (μM)]",73.7 µM
same,GI50,"NCI-60 cancer cell lines; U-251, CNS Cancer, U251, read-out: Antiproliferative Activities [GI50 (μM)]",< 0.01 µM
same,GI50,"NCI-60 cancer cell lines; UACC-62, Melanoma, UACC-62, read-out: Antiproliferative Activities [GI50 (μM)]",< 0.01 µM
same,GI50,"NCI-60 cancer cell lines; UACC-257, Melanoma, UACC-257, read-out: Antiproliferative Activities [GI50 (μM)]",> 100 µM
